Reference: patent publication US20240103005A1, “N-ACRYLOYLINDOLES AND METHODS OF USE” (The University of Hong Kong, priority 2022, published 2024)

How the values were obtained:
HepG2 cells [1] = assay: Confocal fluorescence imaging of HepG2 cells labeled with probe for different time intervals; format: cell-based; conditions: 10 μM; for cellular fluorescence intensity: 15, 30 and 60 min
Method: HepG2 Cells Labeled by NAIA-5 or IAA with Different Time Intervals for Imaging Experiments
HepG2 cells were plated on a 8-well Nunc Lab-Tek chambered slide system (ThermoFisher Scientific; 177402) and allowed to grow in complete medium at 37° C. with 5% CO2 to ca. 70% confluency. The cells were incubated with NAIA-5 and IAA (10 μM) respectively in complete medium for the indicated time interval, washed with PBS and then fixed by 4% paraformaldehyde in PBS at room temperature for 15 min. After washing with PBS, the fixed cells were permeabilized by PBS with 0.5 vol % Triton X-100 at room temperature for 30 min. The cells were then washed and incubated with a master mix solution containing CuSO4, THTPA, azide-fluor 545 and sodium ascorbate at final concentrations of 100, 500, 20 and 5000 μM respectively. After incubation in dark at room temperature for 1 h, the cells were washed with PBS and stained by Hoechst 33342 in PBS (final concentration=8.2 μM) at room temperature for 15 min. The cells were washed thrice with PBS and then imaged by confocal fluorescence microscopy. Hoechst 33342 was excited with a 405 nm diode laser, and emission was collected on a META detector between 371 and 507 nm. Fluor 545 was excited by a 561 nm diode laser and emission was collected on a META detector between 576 and 683 nm. Image analysis was performed by use of ImageJ. A region of interest (ROI) was created around individual cell, and cellular fluorescence intensity was measured. The reported average cellular fluorescence intensity was determined by averaging the measured intensity from 30 different cells from 3 different biological replicates/group. Statistical analyses were performed with a two-tailed Student's t-test (MS Excel).
(§1) Confocal fluorescence microscopy imaging was performed with a Zeiss laser scanning microscope 880 with a 20× water-immersion objective lens using ZEN 2.3 (Black Version) software (Carl Zeiss) with 3× magnification zoom-in. Hoechst 33342 was excited with a 405 nm diode laser, and emission was collected on a META detector between 371 and 507 nm. Fluor 545 was excited by a 561 nm diode laser and emission was collected on a META detector between 576 and 683 nm. Image analysis was performed by use of ImageJ. A region of interest (ROI) was created around individual cell, and cellular fluorescence intensity was measured. The reported average cellular fluorescence intensity was determined by averaging the measured intensity from 30 different cells from 3 different biological replicates/group. Statistical analyses were performed with a two-tailed Student's t-test (MS Excel).
To examine the underlying mechanism of better cysteine labeling in live cells by NAIA, we conducted confocal fluorescence imaging experiments on HepG2 cells treated with NAIA-5 and IAA respectively (both at 10 μM). After treatment for the indicated time intervals, the cells were washed with PBS, fixed by 4% paraformaldehyde in PBS and reacted with azide-fluor 545 through CuAAC. The stained cells were then washed with PBS and imaged by confocal fluorescence microscopy. […] In view of the fast and better labeling of reactive cysteines in live cells, we anticipate that NAIAs can be good candidates for capturing cysteines with dynamic changes in reactivity/modifications in cells. The ability of NAIAs to work nicely with confocal fluorescence microscopic imaging also illustrates their potential application as imaging probes for cellular cysteine reactivity. […]

HepG2 cells [2] = assay: Imaging a decrease in free thiol level in HepG2 cells under oxidative stress; format: cell-based; conditions: 10 min; for fluorescence from labeling of free thiols, solvent control cells: 50 μM, same imaging parameters; for change in cellular fluorescence intensity upon H2O2 pretreatment: H2O2 0.5 or 1 mM 15 min, probe 50 μM
Method: Imaging a Decrease in Free Thiol Level in HepG2 Cells Under Oxidative Stress by NAIA-5 or IAA
HepG2 cells were plated on a 8-well Nunc Lab-Tek chambered slide system and allowed to grow in complete medium at 37° C. with 5% CO2 to ca. 70% confluency. The cells were then pretreated with solvent vehicles, H2O2 (0.5 or 1 mM) or H2O2 (1 mM)+NAC (5 mM) in complete medium for 15 min at 37° C. The cells were washed with PBS and incubated with NAIA-5 or IAA (50 μM) in complete medium for 10 min at 37° C. After that, the cells were washed with PBS and fixed by 4% paraformaldehyde in PBS at room temperature for 15 min. The fixed cells were washed with PBS, permeabilized by PBS with 0.5 vol % Triton X-100 at room temperature for 30 min, washed again with PBS and incubated with a master mix solution containing CuSO4, THTPA, azide-fluor 545 and sodium ascorbate at final concentrations of 100, 500, 20 and 5000 μM respectively. After incubation in dark at room temperature for 1 h, the cells were washed with PBS and stained by Hoechst 33342 in PBS (final concentration=8.2 μM) at room temperature for 15 min. The cells were washed thrice with PBS and then imaged in PBS by confocal fluorescence microscopy.
as §1
These attractive features indicate the good potential of using NAIs/NAIAs to trap cellular thiols in live cells that should allow better identification of cysteine oxidative modifications. To explore this potential application, we first sought to capture and image free thiols by NAIA-5 in live HepG2 cells by confocal fluorescence microscopy (FIG. 4A). HepG2 cells were pretreated with solvent vehicles, H2O2 or H2O2+N-acetyl cysteine (NAC), where NAC can scavenge H2O2 and relieve the oxidative stress in the HepG2 cells. After the pretreatment, the cells were incubated with NAIA-5 or IAA (50 μM) for 10 min to ligand and snap-shot free cellular thiols. […]

For `C#CCCCCNC(=O)CI` [IAA, N-Hex-5-ynyl-2-iodoacetamide, reference compound], the “labeling of cytosolic and nuclear proteins (colocalization with Hoechst channel)” value (HepG2 cells [1]) was “lower Manders' colocalization coefficient”, the cellular fluorescence intensity (HepG2 cells [1]) was “much weaker fluorescence at 15 min” and the “fluorescence from labeling of free thiols, solvent control cells” value (HepG2 cells [2]) was “almost no fluorescence can be detected in IAA-labeled cells”. For the same molecule, the “change in cellular fluorescence intensity upon H2O2 pretreatment” value (HepG2 cells [2]) was “cannot see statistically significant changes in fluorescence intensity”.
For `C#CCCCCNC(=O)COc1ccc2c(ccn2C(=O)C=C)c1` [NAIA-5], the “labeling of cytosolic and nuclear proteins (colocalization with Hoechst channel)” value (HepG2 cells [1]) was “good labeling of proteins in both cytosol and nucleus”, the cellular fluorescence intensity (HepG2 cells [1]) was “Significantly higher fluorescence intensities were found in cells treated with NAIA-5 than IAA” and the cellular permeability (HepG2 cells [1]; inferred from live-cell imaging) was “good cellular permeability”. The “fluorescence from labeling of free thiols, solvent control cells” value (HepG2 cells [2]) was “strong fluorescence from NAIA-5 labeling” and the “change in cellular fluorescence intensity upon H2O2 pretreatment” value (HepG2 cells [2]) was “H2O2 dose-dependent decrease in cellular fluorescence intensity”.
